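Each compound was tested at five concentrations against cells in 96-well plates for 48 hours. TGI marks complete inhibition of growth.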
Experiments:
Experiment in all cases: NCI tumour cell line growth inhibition, 48 h
[1] = system: IGROV1 ovarian
[2] = system: SW-620 colon
[3] = system: OVCAR-5 ovarian
[4] = system: K-562 leukemia
[5] = system: SK-MEL-2 melanoma
[6] = system: UACC-62 melanoma
[7] = system: UACC-257 melanoma
[8] = system: HCC-2998 colon
[9] = system: COLO 205 colon
[10] = system: PC-3 prostate
[11] = system: M14 melanoma
[12] = system: CCRF-CEM leukemia
[13] = system: SK-MEL-28 melanoma
[14] = system: A498 renal

SMILES | TGI [1] | TGI [2] | TGI [3] | TGI [4] | TGI [5] | TGI [6] | TGI [7] | TGI [8] | TGI [9] | TGI [10] | TGI [11] | TGI [12] | TGI [13] | TGI [14]
Clc1nc(NC23CC4CC(CC(C4)C2)C3)nc(NC23CC4CC(CC(C4)C2)C3)n1 | > 100 µM | > 100 µM | > 100 µM | 47 µM | 57.6 µM | > 100 µM | > 100 µM | > 100 µM | > 100 µM | > 40.6 µM | > 100 µM | > 90.8 µM | > 100 µM | > 100 µM
CCOC1OC(CO[Si](C)(C)C(C)(C)C)C(O)CC1n1ccc(=O)[nH]c1=O (centres undefined) | 48.6 µM | 52 µM | > 100 µM | 73.1 µM | > 100 µM | > 100 µM | > 100 µM | > 100 µM | > 100 µM | > 100 µM | > 100 µM | – | > 100 µM | > 100 µM
C#CCNC(CCCN=C(N)N)C(=O)O (centres undefined) | > 100 µM | > 100 µM | > 100 µM | > 100 µM | > 100 µM | > 100 µM | > 100 µM | > 100 µM | > 100 µM | > 100 µM | > 100 µM | > 100 µM | > 100 µM | > 100 µM
CC(C)(CO)CNc1nc(N)nc(Cl)c1C=O | 46.4 µM | > 100 µM | > 100 µM | > 100 µM | 39.2 µM | 32.6 µM | > 100 µM | 21.3 µM | 72.2 µM | 41.3 µM | – | 83.9 µM | 83.8 µM | > 100 µM
CCCCCCCCC#CCCCCCCC(F)C(=O)O (centres undefined) | > 100 µM | > 100 µM | > 100 µM | > 100 µM | > 100 µM | – | > 100 µM | > 100 µM | > 100 µM | > 100 µM | > 100 µM | > 100 µM | > 100 µM | > 100 µM
COc1ccc2c(c1)C1Oc3ccccc3CC1CO2 (centres undefined) | > 100 µM | > 100 µM | > 100 µM | > 100 µM | > 100 µM | > 100 µM | > 100 µM | 42.7 µM | > 100 µM | > 100 µM | > 100 µM | > 100 µM | – | 96.2 µM
COc1ccccc1OC/C(N=Cc1cccnc1)=N/NC(=O)c1ccncc1 | > 100 µM | > 100 µM | > 100 µM | > 100 µM | > 100 µM | > 100 µM | > 100 µM | > 100 µM | > 100 µM | > 100 µM | > 100 µM | > 100 µM | > 100 µM | > 100 µM
CCSc1c2cc(OC)ccc2nc2ccc(OC)cc12 | > 55 µM | > 100 µM | 78.4 µM | > 44.1 µM | 48.7 µM | 47.8 µM | 30.4 µM | 25.5 µM | > 45.3 µM | > 56 µM | 33.3 µM | > 42.9 µM | > 59.2 µM | 30 µM
CCc1n[nH]c(=O)n1N | > 100 µM | > 100 µM | > 100 µM | > 100 µM | > 100 µM | > 100 µM | > 100 µM | > 100 µM | > 100 µM | > 100 µM | > 100 µM | > 100 µM | > 100 µM | > 100 µM
COc1cnc2oc3ccc(O)cc3c2c1-c1ccccc1 | – | > 100 µM | 68.2 µM | > 100 µM | > 100 µM | – | > 100 µM | 92.1 µM | > 100 µM | > 100 µM | 39.8 µM | > 100 µM | > 100 µM | > 100 µM
O=C(N/N=C\c1ccc([N+](=O)[O-])cc1)Nc1ccc2ccccc2c1 | > 100 µM | 53.6 µM | > 100 µM | > 100 µM | > 100 µM | > 100 µM | > 100 µM | 62.9 µM | 71.3 µM | > 100 µM | > 100 µM | > 100 µM | > 100 µM | 56.8 µM
CSc1cc(Cl)c(C(=O)Nc2ccccc2)cc1S(=O)(=O)n1cc[nH]c1=O | > 100 µM | > 100 µM | > 100 µM | > 100 µM | > 100 µM | > 100 µM | > 100 µM | > 100 µM | > 100 µM | > 100 µM | > 100 µM | > 100 µM | > 100 µM | > 100 µM
CCC(=O)NC(NNS(=O)(=O)c1ccc(C)cc1)(C(F)(F)F)C(F)(F)F | > 100 µM | > 100 µM | > 100 µM | > 100 µM | > 100 µM | > 100 µM | > 100 µM | > 10 µM | > 100 µM | > 100 µM | > 100 µM | > 100 µM | 61.5 µM | > 100 µM
C[C@]12CC/C(=N\OCCN3CCCC3)C=C1CCC1C2CC[C@@]2(C)C1CC[C@]2(C)O (some centres undefined) | 35.9 µM | – | > 100 µM | 14.2 µM | 44.2 µM | 11.8 µM | 17.8 µM | 24.3 µM | 11.9 µM | 71.7 µM | 37.1 µM | 9.6 µM | – | 4.7 µM
N#Cc1ccc(N=NN2CCCC2)cc1 | > 100 µM | > 100 µM | > 100 µM | > 100 µM | > 100 µM | > 100 µM | > 100 µM | > 100 µM | > 100 µM | > 100 µM | > 100 µM | > 100 µM | – | > 100 µM
CC(C)(C(=O)N(C(=O)N1CCN(c2ccccc2)CC1)S(=O)(=O)c1ccccc1)c1ccc(Cl)cc1 | – | > 100 µM | > 100 µM | > 100 µM | 53.9 µM | > 100 µM | > 100 µM | > 100 µM | 42.7 µM | 70.3 µM | > 100 µM | > 100 µM | > 100 µM | 80.8 µM
